In patent publication US20080269266A1, “NOVEL COMPOUNDS 747” (ASTRAZENECA AB, priority 2007, published 2008):
pIC50: −log10 of the molar value.

Target: T1, human cytochrome P450 (CYP) 3A4 (Homo sapiens, UniProt P08684)
T1 construct: made in house; host or cells: yeast cell lines (microsomal fractions)
Assay: Cytochrome P450 Inhibition Assay 3A4
Assay type: in vitro ADME
Conditions: test compound final concentrations 0.1-10 μM; substrate BFC
Procedure: The inhibitory potential (IC50) of test compounds against 5 human cytochrome P450 (CYP) isoforms (1A2, 2C9, 2C19, 3A4 and 2D6) was assessed using an automated fluorescent end point in vitro assay modified from Crespi (Crespi and Stresser, 2000). Microsomal subcellular fractions prepared from Yeast cell lines expressing each human CYP isoform were used as an enzyme source in this assay. The activity of the 5 major human CYPs was determined from the biotransformation of a number of coumarin substrates to fluorescent metabolites, in the presence of NADPH. […] Stock solutions of each CYP, with its respective substrate, were prepared in phosphate buffer pH7.4 (see Table 1) and 178 μl was added to the well of a black solid, flat bottom, 300 μl 96 well is microtitre plate (Corning Costar). […] After pre-incubating at 37° C. for 5 min the reactions were started with addition of NADPH (20 μl, concentration shown in Table 1). […] The appropriate solvent controls and substrate blanks were included in each experiment to assess control activity and identify any inherent fluorescence due to the test compounds. […] The plates were read on a fluorimeter (Spectrafluor Plus) at the appropriate excitation and emission wavelengths (listed in Table 2) and the percent activity, corrected for control, was plotted against the test compound concentration.

T1 sequence (P08684 whole entry): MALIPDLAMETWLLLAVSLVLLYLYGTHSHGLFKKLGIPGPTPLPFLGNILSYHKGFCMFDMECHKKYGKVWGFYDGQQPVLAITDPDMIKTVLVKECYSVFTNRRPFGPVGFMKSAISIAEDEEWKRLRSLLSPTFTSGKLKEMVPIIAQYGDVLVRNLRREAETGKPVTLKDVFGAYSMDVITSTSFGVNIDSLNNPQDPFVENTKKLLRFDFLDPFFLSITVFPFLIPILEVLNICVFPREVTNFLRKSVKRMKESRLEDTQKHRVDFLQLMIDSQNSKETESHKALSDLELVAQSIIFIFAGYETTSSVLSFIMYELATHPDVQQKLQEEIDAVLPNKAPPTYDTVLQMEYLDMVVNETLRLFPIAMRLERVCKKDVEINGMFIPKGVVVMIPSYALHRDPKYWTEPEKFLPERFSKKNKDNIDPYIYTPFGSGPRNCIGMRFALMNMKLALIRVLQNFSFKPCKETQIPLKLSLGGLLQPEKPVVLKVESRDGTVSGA

Compound | pIC50
CCc1cc(Nc2cc(OC)nc(N3CCC[C@H]3c3cc(-c4ncccn4)no3)n2)n[nH]1 [Comparative Example A, (S)-6-Methoxy-2-{2-[3-(pyrimid-2-yl)isoxazol-5-yl]pyrrolidin-1-yl}-4-(5-ethyl-1H-pyrazol-3-ylamino)pyrimidine] | < 5.00
COc1cc(Nc2cc(C)n[nH]2)nc(N2CCC[C@H]2c2cc(-c3ncccn3)no2)n1 [Example 1, (S)-6-Methoxy-2-{2-[3-(pyrimid-2-yl)isoxazol-5-yl]pyrrolidin-1-yl}-4-(5-methyl-1H-pyrazol-3-ylamino)pyrimidine] | < 5.00
